Data as given in ChEMBL document CHEMBL1201862, “PubChem BioAssay data set” (2004).
One block for each molecule: values may come before it. Activity calls are given as the source filed them.

Tests used:
Beta-galactosidase = Beta-galactosidase (Escherichia coli, UniProt Q8VNN2); assay: Dose response counterscreen for EBI2 assay utilizing the enzyme, b-galactosidase.; format: functional
[1] = molecular target: Kappa-type opioid receptor (Homo sapiens, UniProt P41145); format: functional
[2] = molecular target: T1, ATP-dependent translocase ABCB1 (Homo sapiens, UniProt P08183); assay: P-gp JC-1 efflux blockade concentration-response – Jurkat-DNR cells, flow cytometry, set 2, dose response (AID 504569); format: functional; settings: read-out: EC50_MICROM_;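 note: potency of pump inhibitors that raise cellular JC-1 green fluorescence up to the nicardipine level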
T1 sequence (P08183 whole entry): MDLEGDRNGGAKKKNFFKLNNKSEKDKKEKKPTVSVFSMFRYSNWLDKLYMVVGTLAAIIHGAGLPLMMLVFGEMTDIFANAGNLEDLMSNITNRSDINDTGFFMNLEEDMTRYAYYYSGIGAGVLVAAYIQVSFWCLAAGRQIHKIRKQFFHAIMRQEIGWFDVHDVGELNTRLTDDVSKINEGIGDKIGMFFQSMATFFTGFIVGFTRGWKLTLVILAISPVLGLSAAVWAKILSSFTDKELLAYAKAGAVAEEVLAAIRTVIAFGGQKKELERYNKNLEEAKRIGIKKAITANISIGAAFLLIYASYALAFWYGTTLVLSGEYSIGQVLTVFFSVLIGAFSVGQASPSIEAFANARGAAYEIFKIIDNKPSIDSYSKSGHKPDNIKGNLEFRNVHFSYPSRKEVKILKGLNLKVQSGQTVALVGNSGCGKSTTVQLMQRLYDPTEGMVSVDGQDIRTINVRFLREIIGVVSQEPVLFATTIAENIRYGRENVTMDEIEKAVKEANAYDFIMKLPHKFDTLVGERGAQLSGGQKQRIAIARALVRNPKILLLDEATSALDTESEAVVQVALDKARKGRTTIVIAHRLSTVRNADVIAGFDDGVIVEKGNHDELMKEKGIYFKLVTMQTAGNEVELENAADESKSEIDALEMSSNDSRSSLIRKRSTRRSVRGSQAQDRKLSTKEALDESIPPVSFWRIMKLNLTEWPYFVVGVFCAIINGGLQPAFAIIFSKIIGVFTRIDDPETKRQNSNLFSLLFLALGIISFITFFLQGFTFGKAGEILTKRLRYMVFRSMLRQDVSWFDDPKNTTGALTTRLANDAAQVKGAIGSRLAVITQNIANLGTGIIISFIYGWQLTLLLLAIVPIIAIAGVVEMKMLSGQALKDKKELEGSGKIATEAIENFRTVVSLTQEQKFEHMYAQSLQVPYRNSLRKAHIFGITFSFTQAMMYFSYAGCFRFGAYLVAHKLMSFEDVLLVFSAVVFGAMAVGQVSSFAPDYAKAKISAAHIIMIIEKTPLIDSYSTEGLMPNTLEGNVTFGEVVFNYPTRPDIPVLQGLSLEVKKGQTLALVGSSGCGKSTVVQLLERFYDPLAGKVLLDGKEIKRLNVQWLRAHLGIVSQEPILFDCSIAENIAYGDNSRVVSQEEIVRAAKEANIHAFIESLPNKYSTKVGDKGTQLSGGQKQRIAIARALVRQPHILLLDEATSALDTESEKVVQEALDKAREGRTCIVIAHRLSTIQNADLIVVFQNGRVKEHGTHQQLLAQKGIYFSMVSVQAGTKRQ

[3] = molecular target: T1, ATP-dependent translocase ABCB1; assay: inhibition of BCRP-mediated JC-1 efflux – Ig-MXP3 cells, flow cytometry, set 2, dose response (AID 504566); format: functional; settings: read-out: EC50_MICROM_;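 note: flow cytometry median green fluorescence of retained JC-1 dye; potency of efflux pump inhibition measured as rising substrate retention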
Vero = assay: viability loss in Vero cells – cell-based, plate reader, cherry-pick samples, cytotoxicity control, dose response (AID 687020); format: functional; settings: Chlorocebus sabaeus
A549 = assay: viability loss in A549 cells – cell-based, plate reader, cherry-pick samples, cytotoxicity control, dose response (AID 687028); format: functional; settings: Homo sapiens
[4] = toxicity to human HepG2 hepatoma cells – cell-based, plate reader, dry powder samples, cytotoxicity control, dose response (AID 1159569); format: functional;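 note: inhibitor potency with signal falling toward the positive control level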
HEK293 = assay: viability loss in HEK293T cells – cell-based, ATP luminescence, cherry-pick samples, cytotoxicity control, dose response (AID 687005); format: functional; settings: Homo sapiens;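 note: cells exposed to compound for 48 hours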
[5] = growth inhibition of yeast DHODH-expressing 3D7 parasites – SYBR Green, dry powder samples, dose response (AID 1159570); format: functional, cell-based;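 note: parasite growth measured after 72 hours of compound exposure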
HeLa = assay: viability loss in HeLa cells – cell-based, ATP luminescence, cherry-pick samples, cytotoxicity control, dose response (AID 687004); format: functional; settings: Homo sapiens
[6] = growth inhibition of PfATP4-mutant resistant parasites – NITD609-resistant line, SYBR Green, dry powder, dose response (AID 1159571); format: functional, cell-based;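 note: parasites synchronized at ring stage by sorbitol before testing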
[7] = Dd2 malaria parasite growth inhibition potency – SYBR Green, dry powder samples, dose response (AID 1159566); format: functional, cell-based;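 note: potency for growth inhibition with lower SYBR green DNA signal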
[8] = HEK293 Cytotoxicity Assay Measured in Cell-Based System Using Plate Reader - 7071-01_Inhibitor_Dose_CherryPick_Activity_Set2.; format: functional
[9] = HeLa cell viability loss – 24 h, dry powder, set 2, cytotoxicity control, dose response (AID 651774); format: functional, cell-based
Protein Wnt-3a = Protein Wnt-3a (Mus musculus, UniProt P27467); assay: SAR analysis of small molecule antagonists of Gli-SUFU in a Wnt3a luminescent reporter assay.; format: functional
Protein Wnt-3a, sequence (P27467 whole entry): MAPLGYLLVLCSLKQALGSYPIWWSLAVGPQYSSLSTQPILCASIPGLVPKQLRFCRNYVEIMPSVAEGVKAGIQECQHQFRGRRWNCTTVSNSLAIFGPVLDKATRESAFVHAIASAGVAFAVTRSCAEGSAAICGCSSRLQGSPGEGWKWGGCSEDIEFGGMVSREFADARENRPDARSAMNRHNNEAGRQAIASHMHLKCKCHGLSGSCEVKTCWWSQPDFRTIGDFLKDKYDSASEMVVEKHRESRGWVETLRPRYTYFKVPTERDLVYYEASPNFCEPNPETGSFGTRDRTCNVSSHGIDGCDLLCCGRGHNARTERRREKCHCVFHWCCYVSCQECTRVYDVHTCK

[10] = blockade of melanocortin 4 receptor signaling – cell-based, plate reader, cherry pick, counter-screen for LGR2 antagonist project, dose response (AID 743444); format: functional;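 note: transfected HEK 293 cells stimulated with alpha-MSH peptide; potency of inhibitors of the alpha-MSH evoked signal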
[11] = inhibition of bursicon-driven LGR2 cAMP signaling – cell-based, HEK293, CRE-luciferase reporter, cherry pick, dose response (AID 743342); format: functional
[12] = molecular target: Disintegrin and metalloproteinase domain-containing protein 17 (Homo sapiens, UniProt P78536); assay: inhibition of ADAM17 substrate cleavage – biochemical, quenched FRET substrate, counter-screen for ADAM10 exosite inhibitor project, dose response (AID 743253)
Disintegrin and metalloproteinase domain-containing protein 17, sequence (P78536 whole entry, the tested form may be a part): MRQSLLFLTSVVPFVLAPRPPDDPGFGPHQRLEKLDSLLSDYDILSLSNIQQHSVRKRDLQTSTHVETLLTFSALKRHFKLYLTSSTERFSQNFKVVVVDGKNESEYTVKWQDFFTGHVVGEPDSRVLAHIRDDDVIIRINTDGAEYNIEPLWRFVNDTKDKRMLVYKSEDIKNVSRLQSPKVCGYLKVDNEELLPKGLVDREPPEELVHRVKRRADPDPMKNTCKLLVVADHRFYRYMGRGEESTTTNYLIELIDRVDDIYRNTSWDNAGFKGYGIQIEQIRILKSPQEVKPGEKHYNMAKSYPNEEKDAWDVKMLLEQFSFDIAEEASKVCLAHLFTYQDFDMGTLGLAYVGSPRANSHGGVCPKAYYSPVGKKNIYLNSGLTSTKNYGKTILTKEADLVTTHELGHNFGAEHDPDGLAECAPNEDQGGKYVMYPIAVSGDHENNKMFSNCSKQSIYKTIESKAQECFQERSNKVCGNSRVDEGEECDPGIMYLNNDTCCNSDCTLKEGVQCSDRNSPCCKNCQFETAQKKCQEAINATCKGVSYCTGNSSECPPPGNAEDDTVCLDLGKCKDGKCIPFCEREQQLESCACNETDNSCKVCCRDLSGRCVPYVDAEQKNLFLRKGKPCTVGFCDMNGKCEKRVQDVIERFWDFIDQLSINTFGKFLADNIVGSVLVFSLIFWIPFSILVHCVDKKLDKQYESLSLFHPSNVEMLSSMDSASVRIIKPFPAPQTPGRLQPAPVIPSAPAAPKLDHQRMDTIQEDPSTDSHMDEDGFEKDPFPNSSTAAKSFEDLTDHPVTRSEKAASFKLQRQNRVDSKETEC

[13] = potency of ADAM10 substrate cleavage blockers – biochemical, QFRET, dose response (AID 743254);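 note: ADAM10 enzyme with the DM2 quenched FRET peptide as substrate; EDANS fluorescence gain as the protease cuts the substrate; inhibitor potency against ADAM10 proteolytic activity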

Kappa-type opioid receptor, sequence (P41145 whole entry): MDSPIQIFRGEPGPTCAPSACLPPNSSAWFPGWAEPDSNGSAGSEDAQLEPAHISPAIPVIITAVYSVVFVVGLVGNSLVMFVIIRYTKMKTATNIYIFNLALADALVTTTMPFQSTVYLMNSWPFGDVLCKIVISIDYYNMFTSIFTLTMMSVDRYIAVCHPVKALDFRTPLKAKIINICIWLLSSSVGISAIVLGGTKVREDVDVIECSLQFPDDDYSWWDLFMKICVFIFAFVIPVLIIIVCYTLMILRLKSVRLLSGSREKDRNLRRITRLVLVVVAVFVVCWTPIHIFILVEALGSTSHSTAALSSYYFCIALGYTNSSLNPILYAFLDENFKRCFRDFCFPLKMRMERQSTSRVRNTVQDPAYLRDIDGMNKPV
Beta-galactosidase, sequence (Q8VNN2 whole entry): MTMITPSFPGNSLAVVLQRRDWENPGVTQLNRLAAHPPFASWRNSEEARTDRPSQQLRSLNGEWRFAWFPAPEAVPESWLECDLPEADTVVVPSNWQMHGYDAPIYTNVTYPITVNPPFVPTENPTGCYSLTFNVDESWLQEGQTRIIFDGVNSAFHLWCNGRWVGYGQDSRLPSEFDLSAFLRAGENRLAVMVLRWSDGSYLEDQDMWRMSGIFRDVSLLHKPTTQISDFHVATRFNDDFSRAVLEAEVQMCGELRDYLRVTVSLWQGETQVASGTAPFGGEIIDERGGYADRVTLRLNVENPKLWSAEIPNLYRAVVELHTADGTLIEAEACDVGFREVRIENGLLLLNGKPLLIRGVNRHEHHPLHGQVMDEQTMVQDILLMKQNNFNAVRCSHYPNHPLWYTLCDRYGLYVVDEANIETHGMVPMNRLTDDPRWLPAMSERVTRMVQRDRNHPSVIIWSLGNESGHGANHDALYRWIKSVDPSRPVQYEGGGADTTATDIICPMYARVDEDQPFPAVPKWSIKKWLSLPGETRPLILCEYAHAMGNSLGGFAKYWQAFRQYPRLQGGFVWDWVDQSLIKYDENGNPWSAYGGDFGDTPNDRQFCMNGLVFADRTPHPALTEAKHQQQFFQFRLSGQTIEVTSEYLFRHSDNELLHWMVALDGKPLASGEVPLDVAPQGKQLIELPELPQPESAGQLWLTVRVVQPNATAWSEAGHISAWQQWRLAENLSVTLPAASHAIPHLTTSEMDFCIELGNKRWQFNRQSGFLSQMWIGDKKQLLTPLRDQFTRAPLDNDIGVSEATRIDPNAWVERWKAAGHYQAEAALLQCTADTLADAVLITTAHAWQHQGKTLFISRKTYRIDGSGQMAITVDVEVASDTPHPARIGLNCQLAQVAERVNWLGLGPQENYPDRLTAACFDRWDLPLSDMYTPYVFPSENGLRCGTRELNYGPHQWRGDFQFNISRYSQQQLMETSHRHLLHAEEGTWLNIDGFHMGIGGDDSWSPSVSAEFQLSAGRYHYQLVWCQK

IC50 (Beta-galactosidase): 1.23 µM (active)
IC50 [1]: < 0.98 µM (inactive)
SMILES: CC1(C)CC(=O)C(=CNc2ncccc2/N=C/C2=C(O)CC(C)(C)CC2=O)C(=O)C1

EC50 [2]: 4.1 µM (active)
EC50 [3]: 5.55 µM (active)
SMILES: CC(=O)N1CCN(c2cc(-c3ccccc3)nc3cc(-c4cccc(Cl)c4)nn23)CC1

SMILES: COC(=O)N1CCCCC1c1cc(C(=O)Nc2ccc(OC)cc2C)no1 (centres undefined)
AC50 (Vero): 34.5 µM (active)

SMILES: C[C@@H]1CCCCO[C@H](CN(C)Cc2ccc(Cl)c(Cl)c2)[C@H](C)CN([C@@H](C)CO)C(=O)c2cc(NC(=O)c3ccccc3)ccc2O1
AC50 (A549): 31.5 µM (active)

SMILES: N#C[C@H]1[C@@H](c2ccc(C#CCC3CCCC3)cc2)[C@@H](CO)N1C(=O)c1ccccn1
AC50 [4]: 46.9 µM (active)
AC50 (HEK293): 15.7 µM (active)
AC50 [5]: 1.73 µM (active)
AC50 (HeLa): 27.8 µM (active)
AC50 [6]: 1.44 µM (active)
AC50 [7]: 0.851 µM (active)
AC50 [8]: 15.7 µM (active)

SMILES: Cn1nnnc1NCc1ccc(C(F)(F)F)cc1
AC50 [9]: > 70 µM (inactive)

IC50 (Protein Wnt-3a): > 21.8 µM (inactive)
SMILES: O=C(Nc1cc(N2CCCCC2)ncn1)c1ccc(C(F)(F)F)cc1

SMILES: C[C@H](CO)N1C[C@H](C)[C@H](CN(C)C(=O)Nc2ccc(F)cc2)OCCCC[C@H](C)Oc2ccc(NC(=O)C3CCCCC3)cc2C1=O
AC50 [10]: 65.8 µM (active)
AC50 [11]: 1.82 µM (active)

IC50 [12]: > 69.5 µM (inactive)
IC50 [13]: > 69.5 µM (inactive)
SMILES: COc1ccc(C(=O)N/N=C/c2ccc(OC)c(COc3ccccc3)c2)cc1
